Literature values as cited in patent publication US11390612B2, “Polymorphic forms of Afatinib free base and Afatinib dimaleate” (FRESENIUS KABI ONCOLOGY LIMITED, priority 2015, dated 2022).

Conditions: as observed in WO 2013/052157

polymorphic conversion after absorbing moisture (after absorbing moisture): converts to form E of Afatinib dimaleate
hygroscopicity: hygroscopic in nature
SMILES: CN(C)C/C=C/C(=O)Nc1cc2c(Nc3ccc(F)c(Cl)c3)ncnc2cc1O[C@H]1CCOC1.O=C(O)/C=C\C(=O)O.O=C(O)/C=C\C(=O)O [form A of Afatinib dimaleate]
